Measured values reported in US7022721B1, “Method and composition for rejuvenating cells, tissues, organs, hair and nails” (priority 2001, dated 2006).
Where “and” joins values, the source holds several entries; their conditions need not be identical. Identical values can stand only once. Counter-ions that a name gives are not always drawn.

Key:
[1] = system: Non-enzymatically browned BSA (AGE-BSA) coupled to Collagen Type-I coated plates; experiment: Assay of Uncoupling Activity on non-enzymatically browned BSA coupled to collagen coated plates (ELISA); format: biochemical; conditions: for % uncoupling at 10 mM, 2 days / % uncoupling at 20 mM, 1 day: sugar-mediated coupling of albumen to collagen; for % uncoupling at 5 mM, 1 day: naphthothiazolium test compounds
Procedure: Assay of Uncoupling Activity on Non-Enzymattically Browned BSA Coupled to Collagen Coated Plates
Equipment, Reagents, and Other Materials
Mix equal volume of BSA (50 mg/ml in 1×PBS) and glucose (0.5 M in PBS); keep the solution (after filtered through a 0.22 µm filter and placed in a capped bottle) in a 37° C. incubator for 5 weeks.
Remove an aliquot of the solution and dialyze against 500-fold volume of PBS, with 4 changes of buffer within 2 days. Collect the solution, as AGE-BSA, from dialysis bag and determine the protein concentration. […] During this hour, • Rinse the plate washer with autoclaved dH2O and then flush 3 times with PBS-Tween washing buffer containing 0.05% of Tween-20. • Dilute AGE-BSA in 1×PBS to 0.03 g/l. […] (Record the hours of incubation.) • In the meantime, run maintenance program (Overnight rinse/soak) on the plate washer using autoclaved distilled H2O. • After incubation, flush the plate washer 3 times with PBS-Tween washing buffer. • Wash the plate 4 times with 1×PBS buffers containing 0.2% Tween-20. • Wash 6 more times with PBS-0.05% Tween washing buffer in two directions, 3 times/direction. • Prepare 1:8000 dilution (in 1×PBS) of anti-BSA antibody (rabbit IgG-HRP) • Add 50 1 of diluted antibody to the wells, incubate at room temperature for 30 min. • Wash 8 times with PBS-0.05% Tween washing buffer in two directions, 4 times/direction. • Add 100 1 of TMB substrate solution to the wells; incubate at RT for 15 min. • Stop the reaction by adding 100 1 of 2 M H2SO4. • Read absorbance at 450 nm in an ELISA plate reader. • Plot and analyze data.

[2] = Hair stress vs. strain relationship (stiffness) before and after treatment
From the text: Methodology for Determination of Hair Stress vs. Strain Relationship (Stiffness).
The distensibility (i.e, elasticity, rigidity, shear, tensile strength, compression, etc.) of hair, nails, tendons, etc. can be easily determined using widely available commercial devices, such as manufactured by Instron. Alternatively, other test methods known to a practitioner of the art may be employed.
The test assay for determining whether hair has been “rejuvenated” for the present invention is the following. Individual scalp hairs were cemented into the ends of glass capillary tubes such that several centimeters of the shaft protruded from the end. This hair was then trimmed to extend 18 mm from the end of the tube. […] Thus, this determination of stress vs strain of bending assessed elasticity, compressibility, and shear of each hair shaft. Each hair served as its own control, with baseline and post-treatment properties assessed and directly compared.
A 1 mm thick plate with a 0.5 mm diameter hole drilled through was attached to the surface of an isometric strain gauge. […] The force required to bend each hair a specified distance was determined over a wide range of displacements. […] For purposes of the present invention, the term “rejuvenated” hair shall mean an improvement of at least 20% in the measured values of the treated hair, toward the values seen in young, undamaged hair (i.e. healthy human). […]

In the case of `Cc1sc[n+](CC(=O)c2ccccc2)c1C.[Cl-]` [4,5-Dimethyl-3-(2-oxo-2-phenylethyl)thiazolium chloride, reference compound], the “% uncoupling at 10 mM, 2 days” value ([1]; 10 mM) is reported as 52% and the “% uncoupling at 20 mM, 1 day” value ([1]; 1 day) is reported as 39%.

With `CC(=O)OC(C)c1scc[n+]1CC(=O)N1CCCC1.[Br-]` (stereo not shown) [3-[2-Oxo-2-(1-pyrrolidinyl)ethyl]-2-(1-acetoxyethyl)thiazolium bromide] the “% uncoupling at 20 mM, 1 day” value ([1]; 1 day) was 46%.

For `CCc1scc(C)[n+]1CC(=O)c1ccccc1.[Br-]` [2-Ethyl-4-methyl-3-(2-oxo-2-phenylethyl)thiazolium bromide], the “% uncoupling at 20 mM, 1 day” value ([1]; 1 day) was 57%.

In the case of `Cc1sc(C(C)O)[n+](CC(=O)c2ccccc2)c1C.[Br-]` (stereo not shown) [4,5-dimethyl-2-(1-hydroxyethyl)-3-(2-oxo-2-phenylethyl)thiazolium bromide], the melting point is reported as 174 to 176 °C and the “% uncoupling at 20 mM, 1 day” value ([1]; 1 day) is reported as 45%.

In the case of `Cc1c(O)c2ccccc2c2c1sc(NC1CCCCC1)[n+]2CCCN1CCN(C)CC1.[Cl-]` [2-(Cyclohexylimino)-1,2-dihydro-4-methyl-1-[3-(4-methyl-1-piperazinyl)propyl]naphtho[1,2-d]thiazol-5-ol trihydrochloride], the “% uncoupling at 5 mM, 1 day” value ([1]; 1 day) is reported as 21%.

With `CC(=O)OC(C)c1scc[n+]1CC(=O)c1ccccc1.[Br-]` (stereo not shown) [3-[2-Oxo-2-phenylethyl]-2-(1-acetoxyethyl)thiazolium bromide] the “% uncoupling at 20 mM, 1 day” value ([1]; 1 day) was 52%.

For `Cc1c(O)c2ccccc2c2c1sc(=NC(C)C)n2CCCN(C)C.Cl.Cl` [1,2-dihydro-1-[3-(dimethylamino)propyl]-4-methyl-2-[(1-methylethyl)imino]naphtho[1,2-d]thiazol-5-ol dihydrochloride], the “% uncoupling at 5 mM, 1 day” value ([1]; 1 day) was 19%.

For `CC(O)c1scc[n+]1CC(=O)O` (stereo not shown) [3-carboxymethyl-2-(1-hydroxyethyl)thiazole], the “% uncoupling at 20 mM, 1 day” value ([1]; 1 day) was 47%.

For `CC(O)c1scc[n+]1CC(=O)N1CCCC1.[Cl-]` (stereo not shown) [2-(1-hydroxyethyl)-3-[2-oxo-2-(1-pyrrolidinyl)ethyl]thiazolium chloride], the “% uncoupling at 10 mM, 2 days” value ([1]; 10 mM) was 32%.

With `Cc1csc(C)[n+]1CC(=O)c1ccccc1.[Br-]` [2,4-Dimethyl-3-(2-oxo-2-phenylethyl)thiazolium bromide] the “% uncoupling at 10 mM, 2 days” value ([1]; 10 mM) was 36% and the “% uncoupling at 20 mM, 1 day” value ([1]; 1 day) was 51%.

In the case of `N#CCc1cccc[n+]1CC(=O)N1CCCC1.[Br-]` [1-[2-(1-pyrrolidinyl)-2-oxoethyl]-2-(cyanomethyl)pyridinium bromide], the “% uncoupling at 10 mM, 2 days” value ([1]; 10 mM) is reported as 68%.

For `Cc1sc2[n+](c1C)C=C(c1ccccc1)OC2C.[Br-]` (stereo not shown) [2,3,8-Trimethyl-6-phenyl-8H-thiazolo[2,3-c](1,4)oxazin-4-ium bromide], the “% uncoupling at 20 mM, 1 day” value ([1]; 1 day) was 34%.

In the case of `Cc1c(O)c2ccccc2c2nc(NCCCN3CCOCC3)sc12` [4-Methyl-2-[[3-(4-morpholino)propyl]amino]naphtho[1,2-d]thiazol-5-ol dihydrochloride], the “% uncoupling at 5 mM, 1 day” value ([1]; 1 day) is reported as 36%.

For `CCN=c1sc2c(C)c(O)c3ccccc3c2n1CC.Cl` [1-ethyl-2-(ethylimino)-1,2-dihydro-4-methylnaphtho[1,2-d]thiazol-5-ol monohydrochloride], the “stiffness of hair after treatment” value ([2]; FIG. 1) was “decreases the stiffness of hair”, the “resulting stress less than before treatment (hair stiffness)” value ([2]; hair immersed in 10 mM solution for 15 minutes, strain greater than about 0.06) was “about 50%” and the “% uncoupling at 5 mM, 1 day” value ([1]; 1 day, monohydrochloride) was 59% and 58%.

In the case of `CC1OC(=O)C[n+]2ccsc21.[Br-]` (stereo not shown) [5,6-Dihydro-8-methyl-6-oxo-8H-thiazolo[2,3-c](1,4)oxazin-4-ium bromide], the melting point is reported as 214 to 215.5 °C and the “% uncoupling, 1 day (footnote a: at 30 mM)” value ([1]; 1 day) is reported as 36^a %.

For `Cc1c(O)c2ccccc2c2c1sc(NC1CCCCC1)[n+]2CCCN1CCOCC1` [2-(Cyclohexylimino)-1,2-dihydro-4-methyl-1-[3-(4-morpholino)propyl]naphtho[1,2-d]thiazol-5-ol dihydrochloride], the “% uncoupling at 5 mM, 1 day” value ([1]; 1 day) was 22%.

With `O=C(C[n+]1ccccc1Cc1ccccc1)c1ccccc1.[Br-]` [2-benzyl-1-(2-oxo-2-phenylethyl)pyridinium bromide] the “% uncoupling at 20 mM, 1 day” value ([1]; 1 day) was 54%.

In the case of `CC(OC(=O)c1ccccc1)c1scc[n+]1CC(=O)c1ccccc1.[Br-]` (stereo not shown) [3-(2-Oxo-2-phenylethyl)-2-(1-benzoyloxyethyl)thiazolium bromide], the “% uncoupling at 20 mM, 1 day” value ([1]; 1 day) is reported as 68%.

For `N#CCc1cccc[n+]1CC(=O)N1CCCC1.[Cl-]`, the melting point was 130 to 132 °C.

In the case of `Cc1nc2c(c[n+]1CC(=O)c1ccccc1)CNC(=O)N2.[Br-]` [2-Methyl-3-(2-oxo-2-phenylethyl)-7-oxo-5,6,7,8-tetrahydropyrimidino [4,5-d]pyrimidin-3-ium bromide], the “% uncoupling, 1 day (footnote a: at 30 mM)” value ([1]; 1 day) is reported as 22^a %.

With `O=C(Cn1cc[n+](CC(=O)c2ccccc2)c1)c1ccccc1.[Br-]` [1,3-bis(2-oxo-2-phenylethyl)imidazolium bromide] the “% uncoupling, 1 day (footnote b: at 10 mM)” value ([1]; 10 mM, 1 day) was 25^b %.

In the case of `CC(O)c1scc[n+]1CC(=O)c1ccccc1.[Br-]` (stereo not shown) [3-(2-Oxo-2-phenylethyl)-2-(1-hydroxyethyl)thiazolium bromide], the “% uncoupling at 10 mM, 2 days” value ([1]; 10 mM) is reported as 54%.
